Laboratory results from patent US8470871B2, “Ligands that modulate RAR receptors” (Galderma Research & Development, priority 2004, dated 2013).
Where a name gives a salt, the structure may show the parent alone.

Experiments:
[1] = molecular target: T1, RARalpha (Homo sapiens, UniProt P10276); test: Transactivation test (Kdapp), RARalpha; assay type: cell-based; settings: HeLa stable transfectants, luciferase reporter, crossed curves against reference agonist, Schild regression
T1 sequence (P10276 183-417 limits assumed): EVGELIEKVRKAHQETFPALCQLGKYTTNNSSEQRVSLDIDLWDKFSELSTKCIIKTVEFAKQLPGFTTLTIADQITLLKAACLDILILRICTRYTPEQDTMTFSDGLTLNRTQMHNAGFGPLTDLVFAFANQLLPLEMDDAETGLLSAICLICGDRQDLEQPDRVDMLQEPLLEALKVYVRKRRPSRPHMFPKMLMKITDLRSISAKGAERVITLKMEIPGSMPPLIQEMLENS
Protocol: (§1) The activation of receptors with an agonist (activator) in HeLa cells leads to the expression of a reporter gene, luciferase, which, in the presence of a substrate, generates light. The activation of the receptors may thus be measured by quantifying the luminescence produced after incubating the cells in the presence of a reference agonist. The inhibitory products displace the agonist from its site, thus preventing activation of the receptor. The activity is measured by quantifying the reduction in light produced. This measurement makes it possible to determine the inhibitory activity of the compounds according to the invention.
(§2) In this study, a constant is determined which is the affinity of the molecule for the receptor. Since this value can fluctuate depending on the basal activity and the expression of the receptor, it is referred to as the Kd apparent (KdApp).
(§3) To determine this constant, “crossed curves” of the test product against a reference agonist, 4-[2-(5,5,8,8-tetramethyl-5,6,7,8-tetrahydro-2-naphthyl)propenyl]benzoic acid, are performed in 96-well plates. The test product is used at 10 concentrations and the reference agonist at 7 concentrations. In each well, the cells are in contact with a concentration of the test product and a concentration of the reference agonist, 4-[2-(5,5,8,8-tetramethyl-5,6,7,8-tetrahydro-2-naphthyl)propenyl]benzoic acid. Measurements are also taken for the total agonist (4-[2-(5,5,8,8-tetramethyl-5,6,7,8-tetrahydro-2-naphthyl)propenyl]benzoic acid) and inverse agonist, 4-{(E)-3-[4-(4-tert-butylphenyl)-5,5,8,8-tetramethyl-5,6,7,8-tetrahydro-2-naphthyl]-3-oxopropenyl}benzoic acid, controls.
(§4) The HeLa cell lines used are stable transfectants containing the plasmids ERE-βGlob-Luc-SV-Neo (reporter gene) and RAR (α, β, γ) ER-DBD-puro. These cells are inoculated into 96-well plates at a rate of 10,000 cells per well in 100 μl of DMEM medium without phenol red, and supplemented with 10% defatted calf serum. The plates are then incubated at 37° C. and 7% CO2 for 4 hours.
(§5) The plates are then incubated for 18 hours at 37° C. and 7% CO2.
(§6) The culture medium is removed by turning over and 100 μl of a 1:1 PBS/luciferine mixture is added to each well. After 5 minutes, the plates are read using the luminescence reader.

[2] = molecular target: T2, RARbeta (Homo sapiens, UniProt P10826); test: Transactivation test (Kdapp), RARbeta; assay type: cell-based; settings: HeLa stable transfectants, luciferase reporter, crossed curves against reference agonist, Schild regression
T2 sequence (P10826 183-417 limits assumed): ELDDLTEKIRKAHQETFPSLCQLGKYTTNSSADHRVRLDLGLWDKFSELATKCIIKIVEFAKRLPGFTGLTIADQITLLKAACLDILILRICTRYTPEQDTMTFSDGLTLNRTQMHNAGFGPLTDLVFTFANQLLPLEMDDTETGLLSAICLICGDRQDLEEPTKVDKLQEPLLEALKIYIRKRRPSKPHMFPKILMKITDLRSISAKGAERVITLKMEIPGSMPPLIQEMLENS
Protocol: as §1, §2, §3, §4, §5, §6

SMILES	Kd [1]	Kd [2]	Kd ([1]; hydrochloride)	Kd ([2]; hydrochloride)
CCN(C(C)=O)c1ccc(-c2cc(-c3ccc(C(=O)O)cc3)ccc2OCCCCO)cc1C(C)(C)C [Example 5, 4″-(acetylethylamino)-3″-tert-butyl-4′-(4-hydroxybutoxy)-[1,1′;3′,1″]terphenyl-4-carboxylic acid]	8 nM	8 nM	–	–
CCN(CC)c1ccc(-c2cc(-c3ccc(C(=O)O)cc3)ccc2CC(O)CO)cc1C(C)(C)C (centres unmarked) [Example 35, 3″-tert-butyl-4″-diethylamino-4′-(2,3-dihydroxypropyl)-[1,1′;3′,1″]terphenyl-4-carboxylic acid]	4000 nM	500 nM	–	–
CCN(C(C)=O)c1ccc(-c2cc(-c3ccc(C(=O)O)cc3)ccc2CCCO)cc1C(C)(C)C [Example 37, 4″-(acetylethylamino)-3″-tert-butyl-4′-(3-hydroxypropyl)-[1,1′;3′,1″]terphenyl-4-carboxylic acid]	250 nM	120 nM	–	–
CCN(C(C)=O)c1ccc(-c2cc(-c3ccc(C(=O)O)cc3)ccc2CCCNC2CC2)cc1C(C)(C)C [Example 47, 4″-(acetylethylamino)-3″-tert-butyl-4′(3-cyclopropylaminopropyl)[1,1′;3′,1″]terphenyl-4-carboxylic acid]	–	250 nM	–	–

Continued, values first:

Kd [1]	Kd [2]	Kd ([1]; hydrochloride)	Kd ([2]; hydrochloride)	SMILES
500 nM	4 nM	–	–	CCc1cc(-c2cc(-c3ccc(C(=O)O)cc3)ccc2OCCO)ccc1N(CC)CC [Example 13, 4″-diethylamino-3″-ethyl-4′-(2-hydroxyethoxy)-[1,1′;3′,1″]terphenyl-4-carboxylic acid]
250 nM	8 nM	–	–	CCN(CC)c1ccc(-c2cc(-c3ccc(C(=O)O)cc3)ccc2OCCCO)cc1C [Example 17, 4″-diethylamino-4′-(3-hydroxypropoxy)-3″-methyl[1,1′;3′,1″]terphenyl-4-carboxylic acid]
60 nM	8 nM	–	–	CCN(CC)c1ccc(-c2cc(-c3ccc(C(=O)O)cc3)ccc2CCCO)cc1C(C)(C)C [Example 33, 3″-tert-butyl-4″-diethylamino-4′-(3-hydroxypropyl)-[1,1′;3′,1″]terphenyl-4-carboxylic acid]
–	–	30 nM	2 nM	CCN(CC)c1ccc(-c2cc(-c3ccc(C(=O)O)cc3)ccc2CCCO)cc1C(C)(C)C [Example 52, [3″-tert-butyl-4-carboxy-4′-(3-hydroxypropyl)-[1,1′;3′,1″]terphenyl-4″-yl]diethylamine hydrochloride]
8 nM	4 nM	–	–	CCNc1ccc(-c2cc(-c3ccc(C(=O)O)cc3)ccc2OCCCO)cc1C(C)(C)C [Example 54, 3″-tert-butyl-4″-ethylamino-4′-(3-hydroxypropoxy)-[1,1′;3′,1″]terphenyl-4-carboxylic acid]
